# In patent US6590140B1, “Metal-regulated transporters and uses therefor” (Trustees of Dartmouth College, priority 1996, dated 2003):
# Where two headings read alike, the source gives them in different places.
# Legend:
# Assay type in all cases: cell-based
# IRT1 = molecular target: T1, IRT1 (Arabidopsis thaliana, UniProt Q38856); assay: 55Fe uptake in fet3 fet4 yeast expressing IRT1; details: metal at 100-fold excess
# T1 construct: contain a single 1017 bp open reading frame capable of encoding a polypeptide of 339 amino acids; expressed in transfected cells; host or cells: S. cerevisiae fet3 fet4 strain DEY1453 carrying pIRT-1 (pFL61 library vector, phosphoglycerate kinase promoter)
# T1 sequence (Q38856 9-347 limits assumed): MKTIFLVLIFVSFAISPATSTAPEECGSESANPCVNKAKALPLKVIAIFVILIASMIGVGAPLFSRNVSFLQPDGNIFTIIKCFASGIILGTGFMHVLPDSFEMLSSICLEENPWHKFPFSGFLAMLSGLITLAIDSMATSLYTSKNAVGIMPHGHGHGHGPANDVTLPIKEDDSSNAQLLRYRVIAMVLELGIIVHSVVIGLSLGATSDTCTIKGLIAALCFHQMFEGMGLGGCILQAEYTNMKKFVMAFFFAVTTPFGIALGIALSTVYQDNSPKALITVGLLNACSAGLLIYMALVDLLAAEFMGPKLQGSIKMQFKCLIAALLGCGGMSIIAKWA
# [1] = molecular target: T2, low affinity zinc uptake system (Zrt2p) (Saccharomyces cerevisiae, UniProt Q12436); details: for effect on zinc uptake by the low affinity system / uptake rate of radioactive zinc, % of the control rate: 200 μM added metal, zrt1 mutant cells; for inhibition of pMC4- and pOE2-dependent zinc uptake activity: ZRT2 overexpressing zrt1 cells; for zinc accumulation: 30° C., 10 μM 65Zn
# T2 construct: endogenous in cells; host or cells: S. cerevisiae ZHY1 (zrt1::LEU2) and zinc-replete DY1457; some values come from ZHY1 carrying pMC4 (multicopy genomic ZRT2) or pOE2 (ZRT2 ORF under GAL1)
# T2 sequence (Q12436 whole entry): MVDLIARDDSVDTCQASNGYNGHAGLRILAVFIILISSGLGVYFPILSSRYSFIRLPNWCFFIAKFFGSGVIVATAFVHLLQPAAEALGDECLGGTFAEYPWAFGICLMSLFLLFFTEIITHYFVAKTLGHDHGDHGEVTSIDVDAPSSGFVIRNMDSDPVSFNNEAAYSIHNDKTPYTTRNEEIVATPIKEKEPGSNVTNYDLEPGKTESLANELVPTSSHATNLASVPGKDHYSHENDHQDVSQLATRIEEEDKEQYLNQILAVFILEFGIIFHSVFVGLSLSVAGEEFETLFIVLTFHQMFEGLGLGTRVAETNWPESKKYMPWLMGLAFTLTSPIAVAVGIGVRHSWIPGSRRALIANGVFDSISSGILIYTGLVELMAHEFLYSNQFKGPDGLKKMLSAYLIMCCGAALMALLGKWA
# Description: (§1) Zinc uptake assays were performed as described previously for iron uptake (Eide et al. J. Biol. Chem. 267:20774-20781) except that ^65ZnCl2 (Amersham Corp., Arlington Heights, Ill.) and LZM-EDTA were substituted for ^59FeCl3 and LIM-EDTA. Cells were incubated at 30° C. with ^65Zn for five minutes, filtered, and washed with 10 ml ice-cold SSW. Cell-associated radioactivity was measured by liquid scintillation. Kinetic values were derived using KinetAsyst software (IntelliKinetics, Princeton, N.J.). Zinc accumulation was measured in cells grown in LZM medium supplemented with […] ^65Zn plus nonradioactive zinc to the indicated final concentration. Aliquots (0.5 ml) were filtered, washed with 10 ml ice-cold SSW, and counted by liquid scintillation. b-galactosidase activity was assayed as described by Guarente (Guarante, L. (1983) Methods Enzymol101:181-191).
# (§2) Zinc uptake assays were performed as described previously for iron uptake (Eide et al. (1992) J. Biol. Chem. 267:20774-20781) except that ^65ZnCl2 (Amersham) and LZM-EDTA were substituted for ^59FeCI3 and LIM-EDTA, respectively. Cells were incubated for 5 minutes in LZM-EDTA plus the indicated concentration of ^65Zn, collected on glass fiber filters (Schleicher and Schuell), washed with 10 ml ice-cold SSW (1 mM EDTA, 20 mM trisodium citrate, 1 mM KH2PO4, 1 mM CaCl2, 5 mM MgSO4, 1 mM NaCl pH 4.2), and cell-associated radioactivity was measured by liquid scintillation counting. Cells were starved for glucose by incubating them in LZM-EDTA prepared without glucose for one hour at 30° C. prior to assay. Michaelis-Menten kinetic values were determined using […] software (Intellikinetics, Princeton, N.J.). Stock solutions of the chloride salts of Co, Cu, Mg, Mn, and Ni were prepared in distilled water at a concentration of 100 mM. The nonradioactive ZnCl2 stock was prepared at 100 mM in 0.02 N HCl and the FeCl3 stock was prepared at 50 mM in 0.1 N HCl. The statistical significance of the differences of values relative to controls was determined with one-way analysis of variance (ANOVA) followed by a Dunnett multiple comparison test. β-galactosidase activity was assayed in cells harvested at an OD600 of 0.5-2.0 as described by Guarente (Guarente, L. (1983) Methods Enzymol. 101:181-191) and activity is expressed as the change in absorbance at 420 nm×1000 divided by (min×ml of culture used×OD600 of the culture). Cell-associated zinc was measured in parallel cultures supplemented with tracer amounts of ^65Zn (10 μM) and nonradioactive zinc to the indicated final concentration. Aliquots (0.5 ml) were filtered, washed with 10 ml ice-cold SSW, and radioactivity measured by liquid scintillation.
# (§3) To determine if ZRT1 plays a role in zinc uptake, the biochemical properties of this process in wild type cells were first characterized. […] Wild type (FIG. 10, DY1457, squares) and zrt1 mutant (FIG. 10, ZHY1, circles) cells were grown to exponential phase in zinc-limited (open symbols, FIG. 10) and zinc-replete (FIG. 10, closed symbols) media and assayed for zinc uptake rate over a range ZnSO4 concentrations. Zinc-limited media was LZM+10 μM zinc for the wild type and LZM+500 μM zinc for the mutant. Zinc-replete conditions were LZM+1000 μM for both strains. ZHY1(pOE1) cells (FIG. 10, triangles) were grown in zinc-replete SDgal medium.
# (§4) Mutant zrt1 (ZHY1) cells were grown in LZM supplemented with 1 mM ZnCl2. Cells were incubated with 10 μM ^65Zn for the indicated times at either […]
# [2] = molecular target: T3, high affinity zinc uptake system (Zrt1p) (Saccharomyces cerevisiae, UniProt P32804); assay: 65Zn uptake assay in yeast, high affinity zinc uptake system; details: for effect on zinc uptake by the high affinity system: 20 μM added metal, zinc-limited wild type
# T3 construct: endogenous in cells; host or cells: S. cerevisiae DY1457 (wild type, zinc-limited) and ZHY2 (zrt2); one kinetic value comes from ZHY1 carrying pOE1 (ZRT1 ORF under the GAL1 promoter)
# T3 sequence (P32804 whole entry): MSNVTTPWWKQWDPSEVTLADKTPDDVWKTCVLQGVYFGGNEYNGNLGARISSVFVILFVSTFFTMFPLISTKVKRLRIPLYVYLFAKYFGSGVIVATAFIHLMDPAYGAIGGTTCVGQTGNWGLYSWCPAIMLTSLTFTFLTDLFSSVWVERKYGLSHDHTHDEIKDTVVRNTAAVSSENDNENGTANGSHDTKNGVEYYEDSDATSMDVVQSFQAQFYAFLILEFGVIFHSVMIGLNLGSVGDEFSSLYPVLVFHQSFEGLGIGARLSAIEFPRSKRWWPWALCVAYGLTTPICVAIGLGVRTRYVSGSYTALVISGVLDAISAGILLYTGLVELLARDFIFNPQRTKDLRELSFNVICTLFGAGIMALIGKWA
# Description: as §1, §2, §3, §4
# [3] = zrt1 cells grown in SD glucose supplemented with 2 mM ZnCl2
compound,measurement,setting,value
[Cl-].[Cl-].[Co+2] [Co],inhibition of IRT1-dependent iron uptake,IRT1,inhibit IRT1-dependent iron uptake
same,effect on zinc uptake by the low affinity system,"[1]; 20 μM 65Zn, five minutes",did not diminish zinc uptake
same,effect on zinc uptake by the high affinity system,"[2]; 2 μM 65Zn, five minutes",unaffected
[Cl][Cu][Cl] [Cu],"uptake rate of radioactive zinc, % of the control rate","[1]; 20 μM 65Zn, five minutes",32%
same,inhibition of pMC4- and pOE2-dependent zinc uptake activity,[1],inhibited
same,effect on zinc uptake by the high affinity system,"[2]; 2 μM 65Zn, five minutes",inhibitory
[Fe+2] [Fe(II)],"uptake rate of radioactive zinc, % of the control rate","[1]; 20 μM 65Zn, five minutes",79%
same,inhibition of pMC4- and pOE2-dependent zinc uptake activity,[1],inhibited
same,effect on zinc uptake by the high affinity system,"[2]; 2 μM 65Zn, five minutes",inhibitory
[Cl][Fe]([Cl])[Cl] [Fe(III)],effect on zinc uptake by the low affinity system,"[1]; 20 μM 65Zn, five minutes",did not diminish zinc uptake
same,effect on zinc uptake by the high affinity system,"[2]; 2 μM 65Zn, five minutes",unaffected
[Cl][Mn][Cl] [Mn],inhibition of IRT1-dependent iron uptake,IRT1,inhibit IRT1-dependent iron uptake
same,effect on zinc uptake by the low affinity system,"[1]; 20 μM 65Zn, five minutes",did not diminish zinc uptake
same,effect on zinc uptake by the high affinity system,"[2]; 2 μM 65Zn, five minutes",unaffected
[Cl][Ni][Cl] [Ni],effect on zinc uptake by the low affinity system,"[1]; 20 μM 65Zn, five minutes",did not diminish zinc uptake
same,effect on zinc uptake by the high affinity system,"[2]; 2 μM 65Zn, five minutes",unaffected
[Zn+2] [zinc],inhibition of IRT1-dependent iron uptake,IRT1,inhibit IRT1-dependent iron uptake
same,control rate of zinc uptake,"[1]; 20 μM 65Zn, five minutes, zrt1 (ZHY1) grown in LZM + 1 mM ZnCl2, no other metal",0.9 pmol/min/10^6 cells
same,"uptake rate of radioactive zinc, % of the control rate","[1]; 20 μM 65Zn, five minutes",approximately 10%
same,rate of zinc uptake of pMC4 transformants relative to vector control,"[1]; ZHY1 (zrt1) with pMC4 vs YEp24, SD glucose, all 65Zn concentrations tested",approximately 15 fold
same,Vmax,"[1]; ZHY1 (zrt1) with plasmid pMC4, SD glucose, mean ± SE",28 ± 1 pmol/min/10^6
same,Km,"[1]; ZHY1 (zrt1) with plasmid pMC4, SD glucose, total zinc, mean ± SE, read-out: Km",8 ± 0.4 µM
same,Vmax,"[1]; ZHY1 (zrt1) with plasmid pOE2 (GAL1-ZRT2), SD galactose, mean ± SE",17 ± 2 pmol/min/10^6
same,Km,"[1]; ZHY1 (zrt1) with plasmid pOE2 (GAL1-ZRT2), SD galactose, total zinc, mean ± SE, read-out: Km",3.6 ± 0.1 µM
same,Vmax,"[1]; ZHY1 (zrt1) with vector (YEp24, control for pMC4), SD glucose, mean ± SE",2.2 ± 0.1 pmol/min/10^6
same,Km,"[1]; ZHY1 (zrt1) with vector (YEp24, control for pMC4), SD glucose, total zinc, mean ± SE, read-out: Km",9.5 ± 0.8 µM
same,Vmax,"[1]; ZHY1 (zrt1) with vector (pRS316-GAL1, control for pOE2), SD galactose, mean ± SE",2.0 ± 0.1 pmol/min/10^6
same,Km,"[1]; ZHY1 (zrt1) with vector (pRS316-GAL1, control for pOE2), SD galactose, total zinc, mean ± SE, read-out: Km",10 ± 1 µM
same,Km,"[1]; calculated free zinc, read-out: apparent Km of the low affinity system, free zinc",~0.1 µM
same,zinc accumulation,"[1]; glucose-starved zrt1 cells, five minutes",no detectable zinc accumulation
same,Km,"[1]; total zinc, read-out: apparent Km of the low affinity system",10 µM
same,Vmax,"[1]; wild type, high growth medium [Zn] (LZM + 1.5 mM ZnCl2), mean ± SE",0.60 ± 0.03 pmol/min/10^6
same,Km,"[1]; wild type, high growth medium [Zn] (LZM + 1.5 mM ZnCl2), total zinc, mean ± SE, read-out: Km",15 ± 3 µM
same,Km,"[1]; wild type, zinc-replete cells (LZM+1000 μM), read-out: apparent Km of zinc uptake",10 ± 1 µM
same,Vmax of zinc uptake,[1]; zinc-replete cells,2 pmol/min/10^6 cells
same,Vmax,"[1]; zrt1, high growth medium [Zn], mean ± SE",0.52 ± 0.04 pmol/min/10^6
same,Km,"[1]; zrt1, high growth medium [Zn], total zinc, mean ± SE, read-out: Km",10 ± 1 µM
same,zinc uptake rate,[1]; [3],0.12 pmol/min/106 cells
same,zinc uptake rate relative to untreated cells,[1]; [3],7%
same,zinc uptake rate,"[1]; zrt1 cells grown in zinc-replete SD glucose, assayed at 10, M 65Zn",1.7 pmol/min/10^6 cells
same,zinc accumulation,"[1]; zrt1 cells incubated with glucose, five minutes",3.7 pmol/10^6 cells
same,Vmax of zinc uptake,[1]; zrt1 mutant cells grown in zinc-limiting and zinc-replete media,1-2 pmol/min/10^6 cells
same,Km,"[1]; zrt1 mutant cells grown in zinc-limiting and zinc-replete media, read-out: apparent Km of zinc uptake",10 ± 1 µM
same,control rate of zinc uptake,"[2]; 2 μM 65Zn, five minutes, wild type grown in LZM + 10 μM ZnCl2, no other metal",47 pmol/min/10^6 cells
same,effect on zinc uptake by the high affinity system,"[2]; 2 μM 65Zn, five minutes",inhibitory
same,Vmax of zinc uptake,"[2]; ZHY1(pOE1), ZRT1 expressed from GAL1 promoter, zinc-replete cells, galactose",30 pmol/min/10^6 cells
same,Km,"[2]; ZHY1(pOE1), ZRT1 expressed from GAL1 promoter, zinc-replete cells, galactose, read-out: apparent Km of zinc uptake",0.6 ± 0.1 µM
same,Km,"[2]; calculated free zinc, read-out: apparent Km of the high affinity system, calculated free zinc concentration",~0.01 µM
same,Km,"[2]; total zinc, read-out: apparent Km of the high affinity system, total zinc",1 µM
same,Vmax of zinc uptake,"[2]; wild type DY1457, zinc-limited cells (LZM+10 μM zinc)",80 pmol/min/10^6 cells
same,Km,"[2]; wild type DY1457, zinc-limited cells (LZM+10 μM zinc), read-out: apparent Km of zinc uptake",1 ± 0.1 µM
same,Vmax,"[2]; wild type, low growth medium [Zn] (LZM + 10 μM ZnCl2), mean ± SE",76 ± 2 pmol/min/10^6
same,Km,"[2]; wild type, low growth medium [Zn] (LZM + 10 μM ZnCl2), total zinc, mean ± SE, read-out: Km",0.52 ± 0.07 µM
same,Vmax,"[2]; zrt2, high growth medium [Zn] (LZM + 1.5 mM ZnCl2), mean ± SE",0.31 ± 0.01 pmol/min/10^6
same,Km,"[2]; zrt2, high growth medium [Zn] (LZM + 1.5 mM ZnCl2), total zinc, mean ± SE, read-out: Km",0.4 ± 0.04 µM
same,Vmax,"[2]; zrt2, low growth medium [Zn], mean ± SE",60 ± 2 pmol/min/10^6
same,Km,"[2]; zrt2, low growth medium [Zn], total zinc, mean ± SE, read-out: Km",0.85 ± 0.18 µM
